In ChEMBL document CHEMBL4351025, “Indole-nitroimidazole conjugates as efficient manipulators to decrease the genes expression of methicillin-resistant Staphylococcus aureus” (Eur J Med Chem, 2019):
Values after ≈ are worked out from the molar mass of the structure shown.

What was measured:
Assay type in all cases: functional
[1] = system: Staphylococcus aureus; assay: Antibacterial activity against methicillin-resistant Staphylococcus aureus N315 incubated for 24 hrs by two fold serial dilution method; conditions: N315, 24 h
[2] = system: Enterococcus faecalis; assay: Antibacterial activity against Enterococcus faecalis incubated for 24 hrs by two fold serial dilution method
[3] = system: Staphylococcus aureus; assay: Antibacterial activity against Staphylococcus aureus ATCC 29213 incubated for 24 hrs by two fold serial dilution method; conditions: ATCC 29213, 24 h
[4] = system: Klebsiella pneumoniae; assay: Antibacterial activity against Klebsiella pneumoniae incubated for 24 hrs by two fold serial dilution method
[5] = system: Escherichia coli; assay: Antibacterial activity against Escherichia coli incubated for 24 hrs by two fold serial dilution method
[6] = system: Pseudomonas aeruginosa; assay: Antibacterial activity against Pseudomonas aeruginosa incubated for 24 hrs by two fold serial dilution method
[7] = system: Acinetobacter baumannii; assay: Antibacterial activity against Acinetobacter baumannii incubated for 24 hrs by two fold serial dilution method
[8] = system: Klebsiella pneumoniae; assay: Potency index, ratio of MIC for clinafloxacin to test compound MIC for antibacterial activity against Klebsiella pneumoniae
[9] = system: Acinetobacter baumannii; assay: Potency index, ratio of MIC for norfloxacin to test compound MIC for antibacterial activity against Acinetobacter baumannii

CC(=O)/C(=C/c1cn(CC(=O)N2CCCC2)c2ccccc12)n1cc([N+](=O)[O-])nc1C
MIC [1]: 64 µg/mL (≈ 152 µM)
MIC [2]: 64 µg/mL (≈ 152 µM)
MIC [3]: 64 µg/mL (≈ 152 µM)
MIC [4]: 16 µg/mL (≈ 38 µM)
MIC [5]: 8 µg/mL (≈ 19 µM)
MIC [6]: 2 µg/mL (≈ 4.75 µM)
MIC [7]: 1 µg/mL (≈ 2.37 µM)

CC(=O)/C(=C/c1cn(CC(=O)N(C2CCCCC2)C2CCCCC2)c2ccccc12)n1cc([N+](=O)[O-])nc1C
MIC [1]: 2 µg/mL (≈ 3.76 µM)
MIC [2]: 128 µg/mL (≈ 241 µM)
MIC [3]: 512 µg/mL (≈ 963 µM)
MIC [4]: 8 µg/mL (≈ 15 µM)
MIC [5]: 32 µg/mL (≈ 60.2 µM)
MIC [6]: 512 µg/mL (≈ 963 µM)
MIC [7]: 512 µg/mL (≈ 963 µM)

CC(=O)/C(=C/c1cn(CC(=O)N2CCCCC2)c2cc(C)ccc12)n1cc([N+](=O)[O-])nc1C
MIC [1]: 1 µg/mL (≈ 2.22 µM)
MIC [2]: 128 µg/mL (≈ 285 µM)
MIC [3]: 16 µg/mL (≈ 35.6 µM)
MIC [4]: 32 µg/mL (≈ 71.2 µM)
MIC [5]: 256 µg/mL (≈ 570 µM)
MIC [6]: 32 µg/mL (≈ 71.2 µM)
MIC [7]: 256 µg/mL (≈ 570 µM)

CCN(CC)C(=O)Cn1cc(/C=C(/C(C)=O)n2cc([N+](=O)[O-])nc2C)c2ccc(Cl)cc21
MIC [1]: 512 µg/mL (≈ 1120 µM)
MIC [2]: 1 µg/mL (≈ 2.18 µM)
MIC [3]: 512 µg/mL (≈ 1120 µM)
MIC [4]: 512 µg/mL (≈ 1120 µM)
MIC [5]: 512 µg/mL (≈ 1120 µM)
MIC [6]: 128 µg/mL (≈ 280 µM)
MIC [7]: 512 µg/mL (≈ 1120 µM)

CCN(CC)C(=O)Cn1cc(/C=C(/C(C)=O)n2cc([N+](=O)[O-])nc2C)c2ccccc21
MIC [1]: 16 µg/mL (≈ 37.8 µM)
MIC [2]: 64 µg/mL (≈ 151 µM)
MIC [3]: 128 µg/mL (≈ 302 µM)
MIC [4]: 8 µg/mL (≈ 18.9 µM)
MIC [5]: 16 µg/mL (≈ 37.8 µM)
MIC [6]: 16 µg/mL (≈ 37.8 µM)
MIC [7]: 1 µg/mL (≈ 2.36 µM)
Ratio [8]: 4
Ratio [9]: 8

CC(=O)/C(=C/c1cn(CC(=O)N(C(C)C)C(C)C)c2ccccc12)n1cc([N+](=O)[O-])nc1C
MIC [1]: 1 µg/mL (≈ 2.21 µM)
MIC [2]: 64 µg/mL (≈ 142 µM)
MIC [3]: 512 µg/mL (≈ 1130 µM)
MIC [4]: 16 µg/mL (≈ 35.4 µM)
MIC [5]: 64 µg/mL (≈ 142 µM)
MIC [6]: 512 µg/mL (≈ 1130 µM)
MIC [7]: 512 µg/mL (≈ 1130 µM)

CC(=O)/C(=C/c1cn(CC(=O)N2CCOCC2)c2ccccc12)n1cc([N+](=O)[O-])nc1C
MIC [1]: 2 µg/mL (≈ 4.57 µM)
MIC [2]: 32 µg/mL (≈ 73.2 µM)
MIC [3]: 64 µg/mL (≈ 146 µM)
MIC [4]: 16 µg/mL (≈ 36.6 µM)
MIC [5]: 32 µg/mL (≈ 73.2 µM)
MIC [6]: 128 µg/mL (≈ 293 µM)
MIC [7]: 256 µg/mL (≈ 585 µM)

CCN(CC)C(=O)Cn1cc(/C=C(/C(C)=O)n2cc([N+](=O)[O-])nc2C)c2ccc(C)cc21
MIC [1]: 4 µg/mL (≈ 9.14 µM)
MIC [2]: 64 µg/mL (≈ 146 µM)
MIC [3]: 16 µg/mL (≈ 36.6 µM)
MIC [4]: 512 µg/mL (≈ 1170 µM)
MIC [5]: 128 µg/mL (≈ 293 µM)
MIC [6]: 128 µg/mL (≈ 293 µM)
MIC [7]: 512 µg/mL (≈ 1170 µM)

CC(=O)/C(=C/c1cn(CC(=O)N(C)c2ccccc2)c2ccccc12)n1cc([N+](=O)[O-])nc1C
MIC [1]: 1 µg/mL (≈ 2.19 µM)
MIC [2]: 64 µg/mL (≈ 140 µM)
MIC [3]: 128 µg/mL (≈ 280 µM)
MIC [4]: 32 µg/mL (≈ 69.9 µM)
MIC [5]: 32 µg/mL (≈ 69.9 µM)
MIC [6]: 128 µg/mL (≈ 280 µM)
MIC [7]: 128 µg/mL (≈ 280 µM)

CC(=O)/C(=C/c1cn(CC(=O)N2CCCCC2)c2cc(Cl)ccc12)n1cc([N+](=O)[O-])nc1C
MIC [1]: 64 µg/mL (≈ 136 µM)
MIC [2]: 4 µg/mL (≈ 8.51 µM)
MIC [3]: 512 µg/mL (≈ 1090 µM)
MIC [4]: 64 µg/mL (≈ 136 µM)
MIC [5]: 64 µg/mL (≈ 136 µM)
MIC [6]: 256 µg/mL (≈ 545 µM)
MIC [7]: 512 µg/mL (≈ 1090 µM)
